Each structure is given as a SMILES string.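 Method: 48-hour compound exposure of cells in 96-well plates, five concentrations, linear interpolation of endpoints. Here, GI50 denotes the concentration required for 50% inhibition of growth. TGI: total growth inhibition.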 A value given as a limit tells only on which side of the number the result lay.

Test systems include HCT-15 colon; M19-MEL melanoma; OVCAR-3 ovarian; CCRF-CEM leukemia; SNB-75 CNS; U251 CNS; HCT-116 colon; DLD-1 colon; DU-145 prostate; MDA-N.
What all share (test): DTP human tumour cell line panel, 48 h

The TGI is the concentration at which net growth stops. As for `CC(=O)Nc1ccc(-c2nnc(SCC(=O)Nc3ccc([N+](=O)[O-])cc3)o2)cc1`, the TGI in the experiment with HCT-15 colon is 26 µM; with M19-MEL melanoma it was 26.3 µM; in the experiment with OVCAR-3 ovarian it was 28.1 µM; with CCRF-CEM leukemia, above 100 µM; in the experiment with SNB-75 CNS, 27.6 µM; with U251 CNS, 28 µM. In addition, the TGI in the experiment with HCT-116 colon is 25 µM; with DLD-1 colon, 26.4 µM.

Regarding `NC(=O)C(c1ccccc1)N1OC2C(=O)N(c3ccccc3)C(=O)C2C1c1c2ccccc2c(Cl)c2ccccc12` (configuration not stated), the concentration for total growth inhibition (TGI) in the experiment on HCT-15 colon, with OVCAR-3 ovarian, in the experiment on CCRF-CEM leukemia, in the experiment with SNB-75 CNS, in the experiment on U251 CNS and in the experiment on HCT-116 colon was above 100 µM in each case. The total growth inhibition concentration (TGI) with DU-145 prostate and in the experiment with MDA-N was above 100 µM each time.

For the compound `C[C@]12CC[C@H](O)CC1=CC[C@@H]1C2CC[C@]2(C)C(=O)N(N)C(=O)CC12` (some centres not stated), the TGI with HCT-15 colon, in the experiment with M19-MEL melanoma, in the experiment with OVCAR-3 ovarian, with CCRF-CEM leukemia, in the experiment with SNB-75 CNS and in the experiment on U251 CNS was above 100 µM in each case. The concentration for total growth inhibition (TGI) in the experiment on HCT-116 colon and in the experiment on DLD-1 colon was above 100 µM each time.

With `Oc1cccc2c(Cl)ccnc12`, the TGI in the experiment with HCT-15 colon is 29.7 µM; in the experiment on OVCAR-3 ovarian, 3.19 µM; in the experiment on CCRF-CEM leukemia, 2.52 µM; with SNB-75 CNS, above 100 µM; in the experiment with U251 CNS, 22 µM; in the experiment with HCT-116 colon, 15.2 µM. Further, the TGI in the experiment with DU-145 prostate and with MDA-N was above 100 µM throughout.

Consider `COc1cc(/C=C/C(=N\NS(=O)(=O)c2ccc(C)cc2)c2sc(NNC(C)=O)nc2C)ccc1O`, for which the TGI with HCT-15 colon, in the experiment with OVCAR-3 ovarian, in the experiment with CCRF-CEM leukemia, with SNB-75 CNS, with U251 CNS and in the experiment with HCT-116 colon was above 100 µM in each case. The TGI in the experiment with DU-145 prostate and in the experiment on MDA-N was above 100 µM in each case.

As for `Clc1cc(OC2C3CC4CC(C3)CC2C4)nc(Cl)n1` (configuration not stated), the TGI in the experiment on HCT-15 colon stood at 33.3 µM; in the experiment with OVCAR-3 ovarian it was 35.2 µM; in the experiment with CCRF-CEM leukemia it was 38.8 µM; in the experiment with SNB-75 CNS, 86.7 µM; in the experiment with U251 CNS it was 31.9 µM; in the experiment with HCT-116 colon, 27.5 µM. Moreover, the figures for the TGI in the experiment on DU-145 prostate and in the experiment on MDA-N were 39.9 µM and 53.9 µM, respectively.

Regarding `Nc1cccc2cc(Cl)cnc12`, the TGI with HCT-15 colon, in the experiment on OVCAR-3 ovarian, with CCRF-CEM leukemia, in the experiment on SNB-75 CNS, in the experiment on U251 CNS and with HCT-116 colon was above 100 µM each time. For the same compound, the TGI in the experiment on DU-145 prostate and in the experiment on MDA-N was above 100 µM in each case.

As for `O=c1[nH][nH]c(=O)n1Cc1ccccc1Cn1c(=O)[nH][nH]c1=O`, the TGI in the experiment on HCT-15 colon, with OVCAR-3 ovarian, in the experiment with CCRF-CEM leukemia, with SNB-75 CNS, with U251 CNS and with HCT-116 colon was above 100 µM throughout. Moreover, the TGI in the experiment on DU-145 prostate and with MDA-N was above 100 µM throughout.

As to `C=C1c2nc3ccccc3n2C=C(c2ccccc2)N1c1ccc([N+](=O)[O-])cc1`, the TGI in the experiment with HCT-15 colon is 32.1 µM; in the experiment on OVCAR-3 ovarian, 60.2 µM; in the experiment on CCRF-CEM leukemia it was above 81.3 µM; in the experiment with SNB-75 CNS it was 16.4 µM; in the experiment on U251 CNS, 22.6 µM; in the experiment on HCT-116 colon, 35.2 µM. The TGI in the experiment with DU-145 prostate was above 74.7 µM; with MDA-N it was 43.5 µM.

As to `COc1ccc(C2c3cc4c(cc3OC(NNS(=O)(=O)c3ccc(C)cc3)C2C)OCO4)cc1` (configuration not stated), the TGI in the experiment on HCT-15 colon, in the experiment with OVCAR-3 ovarian, in the experiment with CCRF-CEM leukemia, in the experiment on SNB-75 CNS, with U251 CNS and in the experiment with HCT-116 colon was above 100 µM throughout. The total growth inhibition concentration (TGI) in the experiment with DU-145 prostate and in the experiment on MDA-N was above 100 µM throughout.

Consider `CCOC(=O)c1c2ccccc2n2c(N)c(C(N)=O)nnc12`, for which the TGI in the experiment on HCT-15 colon is above 100 µM; with OVCAR-3 ovarian, above 100 µM; in the experiment on CCRF-CEM leukemia, above 100 µM; in the experiment on SNB-75 CNS, 30.8 µM; with U251 CNS, 55.2 µM; with HCT-116 colon, above 100 µM. Moreover, the TGI in the experiment on DU-145 prostate and in the experiment on MDA-N was above 100 µM in each case.

For the compound `CNS(=O)(=O)NNS(=O)(=O)c1ccc2ccccc2c1`, the TGI in the experiment on HCT-15 colon, with M19-MEL melanoma, with OVCAR-3 ovarian, with CCRF-CEM leukemia, with SNB-75 CNS and in the experiment on U251 CNS was above 100 µM throughout. Besides, the TGI in the experiment with HCT-116 colon and with DLD-1 colon was above 100 µM throughout.

For `O=C1/C(=C/c2ccc(O)cc2)CC/C1=C\c1ccc(O)cc1`, the TGI was above 100 µM with HCT-15 colon; above 100 µM in the experiment with OVCAR-3 ovarian; 6.74 µM in the experiment with CCRF-CEM leukemia; above 100 µM in the experiment on SNB-75 CNS; above 100 µM in the experiment on U251 CNS; above 100 µM with HCT-116 colon. The TGI with DU-145 prostate and in the experiment on MDA-N was above 100 µM in each case.

As to `CCC12C=CCN3CCC4(C(=C(C(=O)OC)[C@@H]1O)Nc1ccccc14)C32` (some centres not stated), the TGI in the experiment on HCT-15 colon stood at 3.09 µM; in the experiment on M19-MEL melanoma it was 3.61 µM; in the experiment on OVCAR-3 ovarian it was 3.89 µM; in the experiment with CCRF-CEM leukemia, 6 µM; with SNB-75 CNS, 5.8 µM; in the experiment on U251 CNS it was 5.52 µM. In addition, the TGI with HCT-116 colon worked out at 2.95 µM; with DLD-1 colon it was 3.36 µM.

In general, GI50 refers to the concentration at which growth is held to half of that of the control. In the case of `N.N.N.N.O=[N+]([O-])[O-].[Co+3].[N-]=[N+]=[N-].[N-]=[N+]=[N-]`, the TGI with HCT-15 colon, in the experiment with OVCAR-3 ovarian, with CCRF-CEM leukemia, with SNB-75 CNS, with U251 CNS and in the experiment on HCT-116 colon was above 100 µM throughout. Also, in the experiment on DLD-1 colon, the TGI was above 100 µM. Besides, the GI50 with DLD-1 colon is above 100 µM.

Turning to `[N-]=[N+]=Nc1cc(=O)oc2ccccc12`, the TGI with HCT-15 colon, in the experiment with M19-MEL melanoma, in the experiment on CCRF-CEM leukemia, in the experiment on SNB-75 CNS, in the experiment on U251 CNS and in the experiment on HCT-116 colon was above 100 µM in each case. Moreover, the TGI in the experiment on DLD-1 colon was above 100 µM.

For the origin of these results see PubChem BioAssay (NCI).
